Data from patent publication US20140128336A1, “MEDICAL PRODUCTS FOR USE IN CONDITIONS RELATED TO MICROBIAL INFECTIONS IN THE UPPER AERODIGESTIVE TRACT” (BIOHIT OYJ, priority 2011, published 2014).

What was measured:
[1] = system: H. pylori strains (NCTC 11637, ATCC 43504); test: Modified pellicle assay for H. pylori biofilm formation; assay type: cell-based, Helicobacter pylori
Source text: In this example, H. pylori strains (NCTC 11637, National Culture Collection, London, UK, and ATCC 43504, American Type Culture Collection), grown in liquid culture without shaking, were examined to determine their ability to form biofilms in the presence and absence of L-cysteine. The bacteria were screened for biofilm production using modified pellicle assay as previously described by Joshua et al. 2006 (14). The formation of pellicles at the liquid-gas interface of cultures grown without shaking was observed after 3-6 days. All isolates were grown in 13-by 125-mm glass test tubes containing 6 ml of BHI broth supplemented with 2% (w/v) β-cyclodextrin (BCD; Sigma) in the presence and absence of L-cysteine. The bacterial concentration was adjusted equivalently to approximately 0.5 McFarland standard (˜10^8 CFU/ml). The cultures were incubated under microaerobic conditions (N2 85%; O2 5%; CO2 10%) at 35° C. for 7 days without shaking. Development of pellicle and/or attached bacterial cells at interior surface of test tube at the air-liquid interface, representing as biofilm, was examined daily. In the tests using L-cysteine and N-acetyl-cysteine, increasing amounts of L-cysteine or N-acetyl-cysteine were added in increasing concentrations to the culture medium.

H. pylori = test: Open-label randomized trial, eradication of Helicobacter pylori; assay type: in vivo, human; conditions: patients with at least four eradication failures; 600 mg NAC once a day for seven days before culture-guided antibiotic regimen; standard group 4/20
Method: In this open-label randomized trial, 50% of patients with at least four H. pylori eradication failures received before culture-guided antibiotic regimen 600 mg of N-acetylcysteine (NAC) once a day for seven days. In the NAC-pretreatment group H. pylori were successfully eradicated in 13/20 and in standard group only in 4/20 patients (p<01).

[2] = system: Cladosporium cladosporioides; conditions: cited from earlier work
C. cladosporioides = conditions: block containing cysteine; cited from earlier work

Row | SMILES | inhibition of H. pylori biofilm formation ([1]; 2 mg/ml in culture medium) | inhibition of H. pylori biofilm formation ([1]; 10 mg/ml in culture medium) | inhibition of H. pylori biofilm formation ([1]; 20 mg/ml in culture medium) | H. pylori successfully eradicated (H. pylori) | production of ATP in C. cladosporioides [2] | growth of Cladosporium cladosporioides ([2]; cultured with cysteine) | biofilm of C. cladosporioides on surface of silicone block (C. cladosporioides)
1 | N[C@@H](CS)C(=O)O [L-cysteine] | partly | completely | completely | – | – | – | –
2 | CC(=O)N[C@@H](CS)C(=O)O [N-acetylcysteine, reference compound] | partly | completely | completely | 13/20 | – | – | –
3 | N[C@@H](CS)C(=O)O [cysteine] | – | – | – | – | inhibited | completely and statically inhibited | not covered with biofilm
